± gives the expanded uncertainty stated by the source.
Test: xn = mol fraction of the nth substance listed
Settings: 101 kPa, Liquid; for viscosity: Falling or rolling sphere viscometry; for mass density: Vibrating tube method

## CC(=O)[O-].Cn1cc[nH+]c1 [1-methylimidazolium acetate] + CO
293.15 K, x1 = 0.05
  viscosity: 0.818 ± 0.06 mPa·s
  mass density: 841.99 ± 0.77 kg/m3
293.15 K, x1 = 0.1008
  viscosity: 1.049 ± 0.061 mPa·s
  mass density: 880.4 ± 0.64 kg/m3
293.15 K, x1 = 0.1994
  viscosity: 1.568 ± 0.061 mPa·s
  mass density: 936.43 ± 0.49 kg/m3
293.15 K, x1 = 0.2997
  viscosity: 2.134 ± 0.062 mPa·s
  mass density: 974.67 ± 0.35 kg/m3
293.15 K, x1 = 0.4
  viscosity: 2.806 ± 0.064 mPa·s
  mass density: 1002.67 ± 0.28 kg/m3
293.15 K, x1 = 0.4979
  viscosity: 3.486 ± 0.066 mPa·s
  mass density: 1023.14 ± 0.23 kg/m3
293.15 K, x1 = 0.651
  viscosity: 4.706 ± 0.072 mPa·s
  mass density: 1046.77 ± 0.22 kg/m3
293.15 K, x1 = 0.8011
  viscosity: 6.119 ± 0.079 mPa·s
  mass density: 1063.57 ± 0.24 kg/m3
293.15 K, x1 = 0.9012
  viscosity: 7.161 ± 0.086 mPa·s
  mass density: 1072.29 ± 0.27 kg/m3
298.15 K, x1 = 0.05
  viscosity: 0.758 ± 0.06 mPa·s
  mass density: 837.15 ± 0.77 kg/m3
298.15 K, x1 = 0.1008
  viscosity: 0.964 ± 0.061 mPa·s
  mass density: 875.53 ± 0.63 kg/m3
298.15 K, x1 = 0.1994
  viscosity: 1.424 ± 0.061 mPa·s
  mass density: 931.59 ± 0.49 kg/m3
298.15 K, x1 = 0.2997
  viscosity: 1.936 ± 0.062 mPa·s
  mass density: 969.87 ± 0.35 kg/m3
298.15 K, x1 = 0.4
  viscosity: 2.428 ± 0.063 mPa·s
  mass density: 997.94 ± 0.28 kg/m3
298.15 K, x1 = 0.4979
  viscosity: 2.986 ± 0.065 mPa·s
  mass density: 1018.47 ± 0.22 kg/m3
298.15 K, x1 = 0.651
  viscosity: 4.006 ± 0.068 mPa·s
  mass density: 1042.19 ± 0.22 kg/m3
298.15 K, x1 = 0.8011
  viscosity: 5.207 ± 0.074 mPa·s
  mass density: 1059.06 ± 0.24 kg/m3
298.15 K, x1 = 0.9012
  viscosity: 6.065 ± 0.08 mPa·s
  mass density: 1067.83 ± 0.26 kg/m3
303.15 K, x1 = 0.05
  viscosity: 0.704 ± 0.06 mPa·s
  mass density: 832.29 ± 0.77 kg/m3
303.15 K, x1 = 0.1008
  viscosity: 0.889 ± 0.06 mPa·s
  mass density: 870.63 ± 0.63 kg/m3
303.15 K, x1 = 0.1994
  viscosity: 1.317 ± 0.061 mPa·s
  mass density: 926.72 ± 0.49 kg/m3
303.15 K, x1 = 0.2997
  viscosity: 1.747 ± 0.062 mPa·s
  mass density: 965.05 ± 0.35 kg/m3
303.15 K, x1 = 0.4
  viscosity: 2.193 ± 0.062 mPa·s
  mass density: 993.18 ± 0.28 kg/m3
303.15 K, x1 = 0.4979
  viscosity: 2.672 ± 0.064 mPa·s
  mass density: 1013.77 ± 0.22 kg/m3
303.15 K, x1 = 0.651
  viscosity: 3.541 ± 0.067 mPa·s
  mass density: 1037.58 ± 0.22 kg/m3
303.15 K, x1 = 0.8011
  viscosity: 4.509 ± 0.071 mPa·s
  mass density: 1054.54 ± 0.24 kg/m3
303.15 K, x1 = 0.9012
  viscosity: 5.2 ± 0.075 mPa·s
308.15 K, x1 = 0.05
  viscosity: 0.657 ± 0.06 mPa·s
  mass density: 827.39 ± 0.77 kg/m3
308.15 K, x1 = 0.1008
  viscosity: 0.822 ± 0.06 mPa·s
  mass density: 865.7 ± 0.63 kg/m3
308.15 K, x1 = 0.1994
  viscosity: 1.189 ± 0.061 mPa·s
  mass density: 921.83 ± 0.49 kg/m3
308.15 K, x1 = 0.2997
  viscosity: 1.585 ± 0.061 mPa·s
  mass density: 960.22 ± 0.36 kg/m3
308.15 K, x1 = 0.4
  viscosity: 1.991 ± 0.062 mPa·s
  mass density: 988.42 ± 0.28 kg/m3
308.15 K, x1 = 0.4979
  viscosity: 2.399 ± 0.063 mPa·s
  mass density: 1009.07 ± 0.22 kg/m3
308.15 K, x1 = 0.651
  viscosity: 3.133 ± 0.065 mPa·s
  mass density: 1032.97 ± 0.22 kg/m3
308.15 K, x1 = 0.8011
  viscosity: 3.927 ± 0.069 mPa·s
  mass density: 1050 ± 0.24 kg/m3
308.15 K, x1 = 0.9012
  viscosity: 4.485 ± 0.071 mPa·s
  mass density: 1058.86 ± 0.26 kg/m3
313.15 K, x1 = 0.05
  viscosity: 0.615 ± 0.06 mPa·s
  mass density: 822.47 ± 0.77 kg/m3
313.15 K, x1 = 0.1008
  viscosity: 0.763 ± 0.06 mPa·s
  mass density: 860.74 ± 0.64 kg/m3
313.15 K, x1 = 0.1994
  viscosity: 1.093 ± 0.061 mPa·s
  mass density: 916.92 ± 0.49 kg/m3
313.15 K, x1 = 0.2997
  viscosity: 1.445 ± 0.061 mPa·s
  mass density: 955.37 ± 0.36 kg/m3
313.15 K, x1 = 0.4
  viscosity: 1.822 ± 0.062 mPa·s
  mass density: 983.63 ± 0.28 kg/m3
313.15 K, x1 = 0.4979
  viscosity: 2.195 ± 0.062 mPa·s
  mass density: 1004.35 ± 0.23 kg/m3
313.15 K, x1 = 0.651
  viscosity: 2.81 ± 0.064 mPa·s
  mass density: 1028.34 ± 0.22 kg/m3
313.15 K, x1 = 0.8011
  viscosity: 3.454 ± 0.067 mPa·s
  mass density: 1045.45 ± 0.23 kg/m3
313.15 K, x1 = 0.9012
  viscosity: 3.912 ± 0.069 mPa·s
  mass density: 1054.36 ± 0.26 kg/m3

## CC(=O)[O-].Cn1cc[nH+]c1 [1-methylimidazolium acetate] + O
293.15 K, x1 = 0.0496
  viscosity: 2.361 ± 0.074 mPa·s
  mass density: 1050.26 ± 0.6 kg/m3
293.15 K, x1 = 0.0999
  viscosity: 4.352 ± 0.079 mPa·s
  mass density: 1080.12 ± 0.33 kg/m3
293.15 K, x1 = 0.2007
  viscosity: 8.567 ± 0.093 mPa·s
  mass density: 1099.43 ± 0.16 kg/m3
293.15 K, x1 = 0.2985
  viscosity: 11.17 ± 0.1 mPa·s
  mass density: 1099.75 ± 0.14 kg/m3
293.15 K, x1 = 0.3986
  viscosity: 11.62 ± 0.11 mPa·s
  mass density: 1096.26 ± 0.15 kg/m3
293.15 K, x1 = 0.496
  viscosity: 11.27 ± 0.11 mPa·s
  mass density: 1092.17 ± 0.17 kg/m3
293.15 K, x1 = 0.6467
  viscosity: 10.44 ± 0.1 mPa·s
  mass density: 1087.46 ± 0.19 kg/m3
293.15 K, x1 = 0.7954
  viscosity: 9.391 ± 0.098 mPa·s
  mass density: 1083.49 ± 0.22 kg/m3
293.15 K, x1 = 0.8987
  viscosity: 8.655 ± 0.095 mPa·s
  mass density: 1081.48 ± 0.25 kg/m3
298.15 K, x1 = 0.0496
  viscosity: 2.05 ± 0.07 mPa·s
  mass density: 1047.88 ± 0.59 kg/m3
298.15 K, x1 = 0.0999
  viscosity: 3.682 ± 0.074 mPa·s
  mass density: 1076.77 ± 0.3 kg/m3
298.15 K, x1 = 0.2007
  viscosity: 7.087 ± 0.084 mPa·s
  mass density: 1095.11 ± 0.16 kg/m3
298.15 K, x1 = 0.2985
  viscosity: 9.095 ± 0.092 mPa·s
  mass density: 1095.2 ± 0.14 kg/m3
298.15 K, x1 = 0.3986
  viscosity: 9.434 ± 0.094 mPa·s
  mass density: 1091.68 ± 0.15 kg/m3
298.15 K, x1 = 0.496
  viscosity: 9.212 ± 0.093 mPa·s
  mass density: 1087.6 ± 0.16 kg/m3
298.15 K, x1 = 0.6467
  viscosity: 8.538 ± 0.091 mPa·s
  mass density: 1082.93 ± 0.19 kg/m3
298.15 K, x1 = 0.7954
  viscosity: 7.858 ± 0.089 mPa·s
  mass density: 1079.01 ± 0.22 kg/m3
298.15 K, x1 = 0.8987
  viscosity: 7.299 ± 0.087 mPa·s
  mass density: 1077.03 ± 0.25 kg/m3
303.15 K, x1 = 0.0496
  viscosity: 1.797 ± 0.067 mPa·s
  mass density: 1045.35 ± 0.57 kg/m3
303.15 K, x1 = 0.0999
  viscosity: 3.154 ± 0.069 mPa·s
  mass density: 1073.32 ± 0.29 kg/m3
303.15 K, x1 = 0.2007
  viscosity: 5.755 ± 0.077 mPa·s
  mass density: 1090.72 ± 0.16 kg/m3
303.15 K, x1 = 0.2985
  viscosity: 7.498 ± 0.083 mPa·s
  mass density: 1090.61 ± 0.14 kg/m3
303.15 K, x1 = 0.3986
  viscosity: 7.776 ± 0.084 mPa·s
  mass density: 1087.07 ± 0.15 kg/m3
303.15 K, x1 = 0.496
  viscosity: 7.655 ± 0.084 mPa·s
  mass density: 1083 ± 0.16 kg/m3
303.15 K, x1 = 0.6467
  viscosity: 7.137 ± 0.083 mPa·s
  mass density: 1078.39 ± 0.19 kg/m3
303.15 K, x1 = 0.7954
  viscosity: 6.641 ± 0.081 mPa·s
  mass density: 1074.5 ± 0.22 kg/m3
303.15 K, x1 = 0.8987
  viscosity: 6.193 ± 0.08 mPa·s
  mass density: 1072.55 ± 0.25 kg/m3
308.15 K, x1 = 0.0496
  viscosity: 1.59 ± 0.065 mPa·s
  mass density: 1042.68 ± 0.55 kg/m3
308.15 K, x1 = 0.0999
  viscosity: 2.73 ± 0.066 mPa·s
  mass density: 1069.76 ± 0.28 kg/m3
308.15 K, x1 = 0.2007
  viscosity: 4.731 ± 0.072 mPa·s
  mass density: 1086.27 ± 0.15 kg/m3
308.15 K, x1 = 0.2985
  viscosity: 6.239 ± 0.076 mPa·s
  mass density: 1085.97 ± 0.14 kg/m3
308.15 K, x1 = 0.3986
  viscosity: 6.521 ± 0.078 mPa·s
  mass density: 1082.42 ± 0.15 kg/m3
308.15 K, x1 = 0.496
  viscosity: 6.419 ± 0.078 mPa·s
  mass density: 1078.38 ± 0.16 kg/m3
308.15 K, x1 = 0.6467
  viscosity: 6.085 ± 0.077 mPa·s
  mass density: 1073.83 ± 0.18 kg/m3
308.15 K, x1 = 0.7954
  viscosity: 5.663 ± 0.076 mPa·s
  mass density: 1069.99 ± 0.22 kg/m3
308.15 K, x1 = 0.8987
  viscosity: 5.304 ± 0.075 mPa·s
  mass density: 1068.08 ± 0.25 kg/m3
313.15 K, x1 = 0.0496
  viscosity: 1.419 ± 0.064 mPa·s
  mass density: 1039.87 ± 0.53 kg/m3
313.15 K, x1 = 0.0999
  viscosity: 2.363 ± 0.065 mPa·s
  mass density: 1066.09 ± 0.29 kg/m3
313.15 K, x1 = 0.2007
  viscosity: 4.082 ± 0.069 mPa·s
  mass density: 1081.75 ± 0.15 kg/m3
313.15 K, x1 = 0.2985
  viscosity: 5.265 ± 0.072 mPa·s
  mass density: 1081.29 ± 0.14 kg/m3
313.15 K, x1 = 0.3986
  viscosity: 5.535 ± 0.073 mPa·s
  mass density: 1077.74 ± 0.15 kg/m3
313.15 K, x1 = 0.496
  viscosity: 5.459 ± 0.073 mPa·s
  mass density: 1073.73 ± 0.16 kg/m3
313.15 K, x1 = 0.6467
  viscosity: 5.234 ± 0.073 mPa·s
  mass density: 1069.26 ± 0.18 kg/m3
313.15 K, x1 = 0.7954
  viscosity: 4.895 ± 0.072 mPa·s
  mass density: 1065.48 ± 0.21 kg/m3
313.15 K, x1 = 0.8987
  viscosity: 4.584 ± 0.072 mPa·s
  mass density: 1063.6 ± 0.24 kg/m3

Reference: the NIST ThermoML archive (doi:10.1016/j.jct.2012.01.013)
